From patent publication US20160355530A1, “HEPATITIS C INHIBITORS AND USES THEREOF” (AbbVie Inc., priority 2010, published 2016) come the findings set out here.

Structures are written as SMILES. Like-named read-outs stand apart in the source and are kept apart here.

The target of experiment [1] is T1, HCV NS5B polymerase 1a-H77 (Hepatitis C virus genotype 1a, UniProt P27958).
T1 construct: six-histidine tag; made in house; host or cells: E. coli
The experiment in a line: biochemical. To be noted: enzyme, strain 1a H77; read-out: HCV Polymerase Strain 1a H77 IC50. Also on record: species or system HCV genotype 1a. The procedure:
(§1) Purified HCV NS5B polymerase enzymes were used for polymerase inhibition assays. All recombinant HCV polymerases contained the first 570 amino acids of the 591 amino acid native protein sequence and a six-histidine tag at the N-terminus or C-terminus to facilitate purification by affinity chromatography. The DNA nucleotide sequence for the HCV polymerase 1b BK strain was codon optimized for expression in E. coli. A synthetic gene was prepared from a series of overlapping oligonucleotides that were filled in using a DNA polymerase and amplified by PCR. The patient isolate HCV polymerases were cloned by RT-PCR methods using HCV RNA extracted from the serum of infected subjects obtained from ProMedDx and BioCollections (genotypes 2a, 2b, 3a, and 4a). Laboratory strains were cloned from plasmid DNA (1a-H77 or 1a-H77-C316Y) or from existing replicon cells (1b Rice). In all cases the amplified DNA was cloned into a protein expression vector (typically a pET vector from Novagen) and then multiple clones were sequenced to identify one whose NS5B sequence agreed with the population sequence. This sequence-confirmed clone was then transfected into E. coli for protein expression and purification. E. coli cultures were grown to a maximum optical density (OD) of 2-3 and then induced with 0.4 mM isopropyl beta-D-thiogalactopyranoside (IPTG) and grown for 20 hours at 20° C.
(§2) Proteins were purified using nickel affinity chromatography, and additional column steps were added including, ion exchange, size exclusion, hydrophobic ion, and poly-U affinity chromatography, as needed, depending on the sample being purified. The template RNA used in the polymerase enzymatic assay was a 2.1 kb construct that corresponds to the 3′-end of an HCV genotype 1b negative strand RNA.
(§3) The reaction was initiated by the addition of 20 μM CTP, 20 μM ATP, 0.284 μM (0.5 μCi) of 5,6-[^3H] UTP, 5 nM template RNA and 0.1 U/μL RNase inhibitor (RNasin, Promega), and allowed to proceed for three hours at 30° C. The final reaction volume was 50 μL. The reaction was terminated by the addition of 50 uL of 4 mM spermine in 10 mM Tris-HCl, pH 7.5, 1 mM EDTA. The quenched reaction was allowed to incubate for at least 15 minutes at room temperature, and then the precipitated RNA was captured by filtration through a glass fiber filter (GF/B, Millipore) in a 96 well format. The filter plate was washed five times with 200 μL of 2 mM spermine, 10 mM Tris-HCl, pH 8.0, 1 mM EDTA, and two times with ethanol. After drying thoroughly in air, 30 μL of Microscint-20 scintillation cocktail (Perkin Elmer) was added to each well, and the retained cpm were determined by scintillation counting. IC50 values were determined by nonlinear regression.
(§4) % Inhibition=100*[[I]/([I]+[IC50])] equation 1
(§5) V=kcat[S]/2(Km+[S])*(sqrt((IC50+I−E)̂2+(4*IC50*E))−(IC50+I−E)) equation 2

Experiment [2] has as its target T2, HCV NS5B polymerase 1b BK strain (Hepatitis C virus genotype 1b, UniProt P26663).
T2 construct: six-histidine tag; made in house; host or cells: E. coli
Briefly: HCV NS5B polymerase enzymatic inhibition assay, strain 1b BK. To be noted: enzyme, strain 1b BK; read-out: HCV Polymerase Strain 1b BK IC50. Type of experiment: biochemical. The procedure:
as §1, §2, §3, §4, §5

The test system of experiment [3] is HCV 1b-BB7 subgenomic replicon. Briefly: microbe, parasite or virus in culture. It is filed as cell-based, HCV genotype 1b. As to conditions: Hepatitis C virus, stable replicon.
Experiment [4] deals with HCV 1a-H77 subgenomic replicon. The experiment in a line: microbe, parasite or virus in culture. Type of experiment: cell-based, HCV genotype 1a. As to conditions: Hepatitis C virus, stable replicon.
Setting [5] is: strain 1b BB7, 5% FBS, no human plasma, read-out: 1b BB7 5% FBS EC50.
Setting [6] is: strain 1b BB7, 5% FBS, read-out: 1b BB7 5% FBS EC50.
[7] abbreviates: 5% FBS, absence of human plasma, read-out: Stable Replicon 1a H77 5% FBS EC50.
Where [8] appears, read: strain 1a H77, 5% FBS, no human plasma, read-out: 1a H77 5% FBS EC50.
[9] abbreviates: strain 1a H77, 5% FBS, read-out: 1a H77 5% FBS EC50.
Setting [10] is: strain 1b BB7, 5% FBS + 40% human plasma, read-out: 1b BB7 5% FBS + 40% Human Plasma EC50.
Setting [11] is: strain 1a H77, 5% FBS + 40% human plasma, read-out: 1a H77 5% FBS + 40% Human Plasma EC50.

T2 sequence (P26663 2420-2989): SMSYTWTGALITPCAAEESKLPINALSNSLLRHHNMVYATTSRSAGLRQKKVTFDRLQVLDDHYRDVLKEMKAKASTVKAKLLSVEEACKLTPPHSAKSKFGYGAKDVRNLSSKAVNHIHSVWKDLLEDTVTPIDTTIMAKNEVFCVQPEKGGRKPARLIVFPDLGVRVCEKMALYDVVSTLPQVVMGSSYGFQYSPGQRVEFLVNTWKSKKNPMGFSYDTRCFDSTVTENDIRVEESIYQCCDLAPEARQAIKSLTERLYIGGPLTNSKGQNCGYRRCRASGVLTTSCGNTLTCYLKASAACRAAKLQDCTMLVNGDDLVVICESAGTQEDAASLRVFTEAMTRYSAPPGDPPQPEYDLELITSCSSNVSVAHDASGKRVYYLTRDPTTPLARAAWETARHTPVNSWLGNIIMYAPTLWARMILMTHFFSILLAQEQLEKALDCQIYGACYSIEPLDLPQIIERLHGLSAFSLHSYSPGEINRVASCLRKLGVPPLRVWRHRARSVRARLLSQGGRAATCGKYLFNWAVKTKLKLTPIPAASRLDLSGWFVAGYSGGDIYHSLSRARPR
T1 sequence (P27958 2421-2990): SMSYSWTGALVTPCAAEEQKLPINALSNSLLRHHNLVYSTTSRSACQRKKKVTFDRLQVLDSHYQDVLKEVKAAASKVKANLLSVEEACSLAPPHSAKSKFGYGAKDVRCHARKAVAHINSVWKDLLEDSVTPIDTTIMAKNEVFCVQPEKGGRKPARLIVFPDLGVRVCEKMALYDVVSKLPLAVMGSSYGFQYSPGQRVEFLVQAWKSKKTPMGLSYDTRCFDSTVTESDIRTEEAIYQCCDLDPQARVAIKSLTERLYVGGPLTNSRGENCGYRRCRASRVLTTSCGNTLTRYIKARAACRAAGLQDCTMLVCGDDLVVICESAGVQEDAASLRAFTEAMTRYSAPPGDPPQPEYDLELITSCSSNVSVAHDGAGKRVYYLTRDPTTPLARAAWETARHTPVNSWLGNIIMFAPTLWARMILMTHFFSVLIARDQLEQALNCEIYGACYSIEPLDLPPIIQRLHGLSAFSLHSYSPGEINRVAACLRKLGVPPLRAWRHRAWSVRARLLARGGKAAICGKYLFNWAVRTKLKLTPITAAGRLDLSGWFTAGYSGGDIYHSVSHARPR

On to `CC(C)CCN(c1cc2oc(-c3ccc(F)cc3)c(-c3nc(C(F)(F)F)c[nH]3)c2cc1C1CC1)S(C)(=O)=O` [Example 171, N-{5-cyclopropyl-2-(4-fluorophenyl)-3-[4-(trifluoromethyl)-1H-imidazol-2-yl]-1-benzofuran-6-yl}-N-(3-methylbutyl)methanesulfonamide], for which the results for the IC50 in experiment [1] and in experiment [2] were 2.86 µM and 88.7 µM, respectively. Besides, the EC50 in experiment [3] (setting [5]) turned out to be 9.27 µM; in experiment [3] (setting [6]) it was 9.27 µM; in experiment [4] (setting [7]), 7.62 µM; in experiment [4] (setting [8]), 7.62 µM; in experiment [4] (setting [9]), 7.62 µM.

For `CS(=O)(=O)Nc1cc2oc(-c3ccc(F)cc3)c(-c3nc(Cl)c[nH]3)c2cc1C1CC1` [Example 164, N-[3-(4-chloro-1H-imidazol-2-yl)-5-cyclopropyl-2-(4-fluorophenyl)-1-benzofuran-6-yl]methanesulfonamide], the IC50 in experiment [1] turned out to be 0.136 µM; in experiment [2] it was 0.906 µM. Further, the EC50 turned out to be 10 µM in experiment [3] (setting [10]); 1 µM in experiment [3] (setting [5]); 1 µM in experiment [3] (setting [6]); 1 µM in experiment [4] (setting [7]); 10 µM in experiment [4] (setting [11]); 1 µM in experiment [4] (setting [8]). For the same compound, in experiment [4] (setting [9]), the EC50 was found to be 1 µM.

With `Cc1ccc(C)n1-c1ccc2c(-c3ncc[nH]3)c(-c3ccccc3)oc2c1` [Example 166, 2-[6-(2,5-dimethyl-1H-pyrrol-1-yl)-2-phenyl-1-benzofuran-3-yl]-1H-imidazole], the results for the half-maximal inhibitory concentration (IC50) in experiment [1] and in experiment [2] were 1.6 µM and 7 µM, respectively.

Turning to `Cc1nc(-c2c(-c3ccc(F)cc3)oc3cc(NS(C)(=O)=O)c(C4CC4)cc23)[nH]c1C` [Example 192, N-[5-cyclopropyl-3-(4,5-dimethyl-1H-imidazol-2-yl)-2-(4-fluorophenyl)-1-benzofuran-6-yl]methanesulfonamide], the IC50 in experiment [1] came to 10.3 µM; in experiment [2], 18 µM.

Consider `CC(C)CCN(c1cc2oc(-c3ccc(F)cc3)c(C3=NOC(C)(C)N3)c2cc1C1CC1)S(C)(=O)=O` [Example 152, N-[5-cyclopropyl-3-(5,5-dimethyl-4,5-dihydro-1,2,4-oxadiazol-3-yl)-2-(4-fluorophenyl)-1-benzofuran-6-yl]-N-(3-methylbutyl)methanesulfonamide], for which the results for the IC50 in experiment [1] and in experiment [2] were 0.118 µM and 3.6 µM, respectively. In addition, the EC50 in experiment [3] (setting [5]), in experiment [3] (setting [6]), in experiment [4] (setting [7]), in experiment [4] (setting [8]) and in experiment [4] (setting [9]) was 10 µM each time.

For `CS(=O)(=O)N(CN1C(=O)c2ccccc2C1=O)c1cc2oc(-c3ccc(F)cc3)c(-c3ncc[nH]3)c2cc1C1CC1` [Example 82, N-[5-cyclopropyl-2-(4-fluorophenyl)-3-(1H-imidazol-2-yl)-1-benzofuran-6-yl]-N-[(1,3-dioxo-1,3-dihydro-2H-isoindol-2-yl)methyl]methanesulfonamide], the IC50 is 0.35 µM in experiment [1] and 3 µM in experiment [2]. In addition, the EC50 was 1.58 µM in experiment [3] (setting [5]); 1.58 µM in experiment [3] (setting [6]); 2.63 µM in experiment [4] (setting [7]); 2.63 µM in experiment [4] (setting [8]); 2.63 µM in experiment [4] (setting [9]).

`CS(=O)(=O)Nc1cc2oc(-c3ccc(F)cc3)c(-c3nc(Cl)c(Cl)[nH]3)c2cc1C1CC1` [Example 163, N-[5-cyclopropyl-3-(4,5-dichloro-1H-imidazol-2-yl)-2-(4-fluorophenyl)-1-benzofuran-6-yl]methanesulfonamide]: the IC50 came to 0.212 µM in experiment [1] and 0.555 µM in experiment [2]. Also, the EC50 in experiment [3] (setting [10]) is 10 µM; in experiment [3] (setting [5]), 5.4 µM; in experiment [3] (setting [6]), 5.4 µM; in experiment [4] (setting [7]) it was 7.83 µM; in experiment [4] (setting [11]) it was 10 µM; in experiment [4] (setting [8]), 7.83 µM. Further, the EC50 in experiment [4] (setting [9]) worked out at 7.83 µM.

Turning to `COc1ccc(CN(c2cc3oc(-c4ccc(F)cc4)c(C4=NOCC(=O)N4)c3cc2C2CC2)S(C)(=O)=O)cc1` [Example 160, N-[5-cyclopropyl-2-(4-fluorophenyl)-3-(5-oxo-5,6-dihydro-4H-1,2,4-oxadiazin-3-yl)-1-benzofuran-6-yl]-N-(4-methoxybenzyl)methanesulfonamide], the values for the IC50 in experiment [1] and in experiment [2] were 0.11 µM and 0.93 µM, respectively. Further, the EC50 is 9.28 µM in experiment [3] (setting [10]); 0.604 µM in experiment [3] (setting [5]); 0.604 µM in experiment [3] (setting [6]); 2.16 µM in experiment [4] (setting [7]); 10 µM in experiment [4] (setting [11]); 2.16 µM in experiment [4] (setting [8]). The EC50 in experiment [4] (setting [9]) worked out at 2.16 µM.

Turning to `CS(=O)(=O)Nc1cc2oc(-c3ccc(F)cc3)c(-c3nc(Br)c(Br)[nH]3)c2cc1C1CC1` [Example 165, N-[5-cyclopropyl-3-(4,5-dibromo-1H-imidazol-2-yl)-2-(4-fluorophenyl)-1-benzofuran-6-yl]methanesulfonamide], the IC50 in experiment [1] was found to be 1.5 µM; in experiment [2], 2.7 µM.

Consider `CC(C)(C)[Si](C)(C)OCCCCN(c1cc2oc(-c3ccc(F)cc3)c(-c3ncc[nH]3)c2cc1C1CC1)S(C)(=O)=O` [Example 42, N-(4-{[tert-butyl(dimethyl)silyl]oxy}butyl)-N-[5-cyclopropyl-2-(4-fluorophenyl)-3-(1H-imidazol-2-yl)-1-benzofuran-6-yl]methanesulfonamide], for which the IC50 in experiment [1] amounted to 0.083 µM; in experiment [2], 0.781 µM. In addition, the EC50 in experiment [3] (setting [10]) turned out to be 3.39 µM; in experiment [3] (setting [5]) it was 0.119 µM; in experiment [3] (setting [6]), 0.119 µM; in experiment [4] (setting [7]) it was 0.214 µM; in experiment [4] (setting [11]), 7.41 µM; in experiment [4] (setting [8]) it was 0.214 µM. Further, the EC50 in experiment [4] (setting [9]) is 0.214 µM.

As for `CCCC1NC(c2c(-c3ccc(F)cc3)oc3cc(N(CCC(C)C)S(C)(=O)=O)c(C4CC4)cc23)=NO1` (stereo not drawn) [Example 154, N-[5-cyclopropyl-2-(4-fluorophenyl)-3-(5-propyl-4,5-dihydro-1,2,4-oxadiazol-3-yl)-1-benzofuran-6-yl]-N-(3-methylbutyl)methanesulfonamide], the IC50 in experiment [1] came out at 21.3 µM; in experiment [2], 63.3 µM.

For the compound `COc1ccc(CN(c2cc3oc(-c4ccc(F)cc4)c(-c4nc(C)c(C)[nH]4)c3cc2C2CC2)S(C)(=O)=O)cc1` [Example 186, N-[5-cyclopropyl-3-(4,5-dimethyl-1H-imidazol-2-yl)-2-(4-fluorophenyl)-1-benzofuran-6-yl]-N-(4-methoxybenzyl)methanesulfonamide], the IC50 in experiment [1] and in experiment [2] was 4.5 µM in each case.

Turning to `CCCc1nc(-c2c(-c3ccc(F)cc3)oc3cc(N(CCC(C)C)S(C)(=O)=O)c(C4CC4)cc23)no1` [Example 153, N-[5-cyclopropyl-2-(4-fluorophenyl)-3-(5-propyl-1,2,4-oxadiazol-3-yl)-1-benzofuran-6-yl]-N-(3-methylbutyl)methanesulfonamide], the values for the IC50 in experiment [1] and in experiment [2] were 179 µM and 200 µM, respectively.
